For one test, the target named is T1, mTORC1 (Homo sapiens, UniProt P42345+P62942).
T1 construct: endogenous in cells; host or cells: PC-3 cells
Description: mTORC1 inhibition in PC-3 cells, AlphaLISA of p70S6K pT389 levels. Format: cell-based. As to conditions: mTORC1 as measured by inhibition of p70S6K pT389 levels, read-out: mTROC1 IC50. The method, then:
mTORC1 inhibition was determined via analysis of phosphorylation levels of Phospho-p70 S6 kinase (p70S6K pT389) and Phospho-S6 Ribosomal Protein (pRPS6 pS240/pS244) with the corresponding AlphaLISA kits (PerkinElmer Alpha SF Ultra™ Multiplex phospho (Thr389)/total p70 S6K Assay Kit (Eu/Tb) and AlphaLISA SF Ultra™ p-Ribosomal Protein S6 (Ser240/244) Assay Kit).
%−activity=100*((Sample−Low control)/(High control−Low control))

The target in another test is FKBP12 (Homo sapiens, UniProt P62942). Description: SPR assay to determine binding affinity to FKBP12 (direct binding). The settings on record: immobilized biotinylated avi-FKBP12, single-cycle kinetics. The procedure: SPR Assay to Determine Binding Affinity to FKBP12.
FKBP12, sequence (P62942 whole entry, species assumed): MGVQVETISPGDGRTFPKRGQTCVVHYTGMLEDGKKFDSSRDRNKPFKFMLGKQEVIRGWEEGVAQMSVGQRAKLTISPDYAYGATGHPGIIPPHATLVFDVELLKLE
Biotinylated avi-FKBP12 was immobilized on a streptavidin chip (Cytiva Series S SA) using a Biacore 8K or 8k+ (Cytiva). […] Test compounds described in Table 11 were diluted in DMSO to 100× working concentration. Each test compound was 100-fold diluted in 50 mM HEPES pH 7.5, 150 mM NaCl, 2 mM MgCl2, 1 mM DTT, 0.05% Tween-20 and a serial dilution prepared (9 concentrations, 3-fold dilutions, 0.08-500 nM). […] The compound dilutions were then injected at 100 uL/min for 120 seconds contact time in sequence with increasing concentrations. Dissociation was monitored for 3600 seconds. 50 mM HEPES pH 7.5, 150 mM NaCl, 2 mM MgCl2, 1 mM DTT, 0.05% Tween-20, 1% DMSO was used as running buffer. The single-cycle kinetics data were fit to a 1:1 binding model to measure the association rate ka (1/Ms), the dissociation rate kd (1/s) and the affinity Kd (M).

Test [1] concerns the target FKBP12 ternary complex with FRB (Homo sapiens, UniProt P42345+P62942). Description: SPR assay to characterize ternary complex formation with FKBP12 (FRB injected over compound-saturated FKBP12). The settings on record: FRB dilutions with 100 nM test compound over immobilized FKBP12. Format: binding. The procedure:
Biotinylated avi-FKBP12 was immobilized on a streptavidin chip (Cytiva Series S SA) using a Biacore 8K or 8k+ (Cytiva). To achieve an immobilization level of 100 RU, 0.3 μg/ml biotinylated avi-FKBP12 were injected for 80 sec at a flow rate of 10 μl/min. Serial dilution of FRB was prepared (12 concentrations, 3-fold dilutions, 0.00011-20 μM) and supplemented with 100 nM of a test compound. A-B-A injection mode was used to ensure saturation immobilized FKBP12 with respective test compound. 100 nM solution of the respective test compound was injected before FRB injection for 120 sec and during dissociation for 420 sec. The FRB dilutions were then injected 120 seconds contact time with increasing concentrations. Rapamycin was used as reference sample. 50 mM HEPES pH 7.5, 150 mM NaCl, 2 mM MgCl2, 1 mM DTT, 0.05% Tween-20, 1% DMSO was used as running buffer at a flow rate of 30 μl/min. The multi-cycle kinetics data were fit to a 1:1 binding model to measure the association rate ka (1/Ms), the dissociation rate kd (1/s) and the affinity Kd (M). In case of fast association and dissociation, steady state affinity analysis following the law of mass action was used to determine the affinity Kd (M).

`CO[C@@H]1C[C@H](C[C@@H](C)[C@@H]2CC(=O)[C@H](C)/C=C(\C)[C@@H](O)[C@@H](OC)C(=O)[C@H](C)C[C@H](C)/C=C/C=C/C=C(\C)[C@@H](OCC3COC3)C[C@@H]3CC[C@@H](C)[C@@](O)(O3)C(=O)C(=O)N3CCCC[C@H]3C(=O)O2)CC[C@H]1O` [Compound 521, (1R,9S,12S,15R,16E,18R,19R,21R,23S,24E,26E,28E,30S,32S,35R)-1,18-dihydroxy-12-[(2R)-1-[(1S,3R,4R)-4-hydroxy-3-methoxycyclohexyl]propan-2-yl]-19-methoxy-15,17,21,23,29,35-hexamethyl-30-[(oxetan-3-yl)methoxy]-11,36-dioxa-4-azatricyclo[30.3.1.04,9]hexatriaconta-16,24,26,28-tetraene-2,3,10,14,20-pentone]: on mTORC1, the IC50 is < 0.8 nM. Besides, the Kd at FKBP12 was < 0.3 nM; in test [1], 500 to 1100 nM.
As for `COCCO[C@@H]1C[C@@H]2CC[C@@H](C)[C@@](O)(O2)C(=O)C(=O)N2CCCC[C@H]2C(=O)O[C@H]([C@H](C)C[C@@H]2CC[C@@H](OCCCN3CCN(C)CC3)[C@H](OC)C2)CC(=O)[C@H](C)/C=C(\C)[C@@H](O)[C@@H](OC)C(=O)[C@H](C)C[C@H](C)/C=C/C=C/C=C/1C` [Compound 32, (1R,9S,12S,15R,16E,18R,19R,21R,23S,24E,26E,28E,30R,32S,35R)-1,18-dihydroxy-19-methoxy-30-(2-methoxyethoxy)-12-[(1R)-2-[(1S,3R,4R)-3-methoxy-4-[3-(4-methylpiperazin-1-yl)propoxy]cyclohexyl]-1-methyl-ethyl]-15,17,21,23,29,35-hexamethyl-11,36-dioxa-4-azatricyclo[30.3.1.04,9]hexatriaconta-16,24,26,28-tetraene-2,3,10,14,20-pentone], the IC50 on mTORC1 is > 1.5 nM. Also, the dissociation constant Kd on FKBP12 is 0.3 to 1 nM; in test [1] it was > 1100 nM.
On to `CO[C@@H]1C[C@H](C[C@@H](C)[C@@H]2CC(=O)[C@H](C)/C=C(\C)[C@@H](O)[C@@H](OC)C(=O)[C@H](C)C[C@H](C)/C=C/C=C/C=C(\C)[C@H](OCCCCO)C[C@@H]3CC[C@@H](C)[C@@](O)(O3)C(=O)C(=O)N3CCCC[C@H]3C(=O)O2)CC[C@H]1OCCCN1CCOCC1` [Compound 27, (1R,9S,12S,15R,16E,18R,19R,21R,23S,24E,26E,28E,30R,32S,35R)-1,18-dihydroxy-30-(4-hydroxybutoxy)-19-methoxy-12-[(1R)-2-[(1S,3R,4R)-3-methoxy-4-(3-morpholinopropoxy)cyclohexyl]-1-methyl-ethyl]-15,17,21,23,29,35-hexamethyl-11,36-dioxa-4-azatricyclo[30.3.1.04,9]hexatriaconta-16,24,26,28-tetraene-2,3,10,14,20-pentone], for which the IC50 on mTORC1 fell in the range of 0.8 to 1.5 nM. Besides, the Kd on FKBP12 is < 0.3 nM; in test [1], 500 to 1100 nM.
Take `CO[C@@H]1C[C@H](C[C@@H](C)[C@@H]2CC(=O)[C@H](C)/C=C(\C)[C@@H](O)[C@@H](OC)C(=O)[C@H](C)C[C@H](C)/C=C/C=C/C=C(\C)[C@H](OC3CC3)C[C@@H]3CC[C@@H](C)[C@@](O)(O3)C(=O)C(=O)N3CCCC[C@H]3C(=O)O2)CC[C@H]1O` [Compound 519, (1R,9S,12S,15R,16E,18R,19R,21R,23S,24E,26E,28E,30R,32S,35R)-30-(cyclopropoxy)-1,18-dihydroxy-12-[(1R)-2-[(1S,3R,4R)-4-hydroxy-3-methoxy-cyclohexyl]-1-methyl-ethyl]-19-methoxy-15,17,21,23,29,35-hexamethyl-11,36-dioxa-4-azatricyclo[30.3.1.04,9]hexatriaconta-16,24,26,28-tetraene-2,3,10,14,20-pentone]: at mTORC1, the IC50 was < 0.8 nM. Besides, the dissociation constant (Kd) on FKBP12 was < 0.3 nM; in test [1], < 500 nM.
On to `CO[C@@H]1C[C@H](C[C@@H](C)[C@@H]2CC(=O)[C@H](C)/C=C(\C)[C@@H](O)[C@@H](OC)C(=O)[C@H](C)C[C@H](C)/C=C/C=C/C=C(\C)[C@H](OCC3COC3)C[C@@H]3CC[C@@H](C)[C@@](O)(O3)C(=O)C(=O)N3CCCC[C@H]3C(=O)O2)CC[C@H]1OCCO` [Compound 75, (1R,9S,12S,15R,16E,18R,19R,21R,23S,24E,26E,28E,30R,32S,35R)-1,18-dihydroxy-12-[(1R)-2-[(1S,3R,4R)-4-(2-hydroxyethoxy)-3-methoxy-cyclohexyl]-1-methyl-ethyl]-19-methoxy-15,17,21,23,29,35-hexamethyl-30-(oxetan-3-ylmethoxy)-11,36-dioxa-4-azatricyclo[30.3.1.04,9]hexatriaconta-16,24,26,28-tetraene-2,3,10,14,20-pentone], for which the IC50 at mTORC1 is > 1.5 nM. Moreover, the figures for the Kd (on FKBP12; in test [1]) were 0.3 to 1 nM and > 1100 nM, respectively.
`CO[C@@H]1C[C@H](C[C@@H](C)[C@@H]2CC(=O)[C@H](C)/C=C(\C)[C@@H](O)[C@@H](OC)C(=O)[C@H](C)C[C@H](C)/C=C/C=C/C=C(\C)[C@@H](OCCO)C[C@@H]3CC[C@@H](C)[C@@](O)(O3)C(=O)C(=O)N3CCCC[C@H]3C(=O)O2)CC[C@H]1OCCCN1CCOC[C@@H]1C` [Compound 401, (1R,9S,12S,15R,16E,18R,19R,21R,23S,24E,26E,28E,30S,32S,35R)-1,18-dihydroxy-30-(2-hydroxyethoxy)-19-methoxy-12-[(1R)-2-[(1S,3R,4R)-3-methoxy-4-[3-[(3S)-3-methylmorpholin-4-yl]propoxy]cyclohexyl]-1-methyl-ethyl]-15,17,21,23,29,35-hexamethyl-11,36-dioxa-4-azatricyclo[30.3.1.04,9]hexatriaconta-16,24,26,28-tetraene-2,3,10,14,20-pentone]: the Kd in test [1] was < 500 nM.
Regarding `CO[C@@H]1C[C@H](C[C@@H](C)[C@@H]2CC(=O)[C@H](C)/C=C(\C)[C@@H](O)[C@@H](OC)C(=O)[C@H](C)C[C@H](C)/C=C/C=C/C=C(\C)[C@@H](OC3COC3)C[C@@H]3CC[C@@H](C)[C@@](O)(O3)C(=O)C(=O)N3CCCC[C@H]3C(=O)O2)CC[C@H]1O` [Compound 523, (1R,9S,12S,15R,16E,18R,19R,21R,23S,24E,26E,28E,30S,32S,35R)-1,18-dihydroxy-12-[(2R)-1-[(1S,3R,4R)-4-hydroxy-3-methoxycyclohexyl]propan-2-yl]-19-methoxy-15,17,21,23,29,35-hexamethyl-30-(oxetan-3-yloxy)-11,36-dioxa-4-azatricyclo[30.3.1.04,9]hexatriaconta-16,24,26,28-tetraene-2,3,10,14,20-pentone], the half-maximal inhibitory concentration (IC50) on mTORC1 is < 0.8 nM. The Kd is < 0.3 nM on FKBP12 and > 1100 nM in test [1].
With `CO[C@@H]1C[C@H](C[C@@H](C)[C@@H]2CC(=O)[C@H](C)/C=C(\C)[C@@H](O)[C@@H](OC)C(=O)[C@H](C)C[C@H](C)/C=C/C=C/C=C(\C)[C@@H](OCCO)C[C@@H]3CC[C@@H](C)[C@@](O)(O3)C(=O)C(=O)N3CCCC[C@H]3C(=O)O2)CC[C@H]1OCCCN1CCOC[C@H]1C` [Compound 404, (1R,9S,12S,15R,16E,18R,19R,21R,23S,24E,26E,28E,30S,32S,35R)-1,18-dihydroxy-30-(2-hydroxyethoxy)-19-methoxy-12-[(1R)-2-[(1S,3R,4R)-3-methoxy-4-[3-[(3R)-3-methylmorpholin-4-yl]propoxy]cyclohexyl]-1-methyl-ethyl]-15,17,21,23,29,35-hexamethyl-11,36-dioxa-4-azatricyclo[30.3.1.04,9]hexatriaconta-16,24,26,28-tetraene-2,3,10,14,20-pentone], the IC50 on mTORC1 was < 0.8 nM. On FKBP12, the Kd is < 0.3 nM.

The values above are taken from US20230331737A1, “MTORC1 MODULATORS AND USES THEREOF” (Aeovian Pharmaceuticals, Inc., priority 2020, published 2023).
